Data published in US12180187B2, “1-phenyl-5-azinylpyrazolyl-3-oxyalkyl acids and their use for controlling unwanted plant growth” (BAYER AKTIENGESELLSCHAFT, priority 2019, dated 2024).

Columns and labels:
LOLRI [1] = assay: Post-emergence action against LOLRI, 1.28 kg/ha; format: in vivo, Lolium rigidum; details: dosage 1280 g/ha, visual rating about 3 weeks after treatment vs untreated controls
Outline: (§1)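 Activity scored visually roughly 3 weeks after treatment against untreated plants (0% = as control, 100% = dead). Plants grown in sandy loam in greenhouse, treated at one-leaf stage, 2–3 weeks post-sowing, with WP/EC spray containing 0.5% additive at 600 l/ha.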

KCHSC [2] = assay: Post-emergence action against KCHSC, 1.28 kg/ha; format: in vivo, Bassia scoparia; details: dosage 1280 g/ha, visual rating about 3 weeks after treatment vs untreated controls (100% = plants died)
Outline: as §1

MATIN [3] = assay: Pre-emergence action against MATIN, 1280 g/ha; format: in vivo, Tripleurospermum inodorum (Matricaria inodora); details: scored visually after about 3 weeks vs untreated controls (100% = plants have died)
Outline: (§2)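 Activity was scored visually as percent versus untreated controls about 3 weeks after treatment (100% = dead plants, 0% = control-like). Compounds, formulated as wettable powders or emulsion concentrates, were sprayed onto the covering soil over freshly sown seeds in sandy loam, with 0.5% additive and 600 L/ha water.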

VERPE [4] = assay: Pre-emergence action at 320 g/ha against VERPE; format: in vivo, Veronica persica; details: visual scoring after about 3 weeks vs untreated controls
Outline: (§3)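 Effect rated visually (% vs untreated control) about 3 weeks after pre-emergence spraying of WP/EC formulation onto soil; spray carried 0.5% additive at 600 l/ha water.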

ALOMY [5] = assay: Pre-emergence action at 320 g/ha against ALOMY; format: in vivo, Alopecurus myosuroides; details: scored visually after about 3 weeks vs untreated controls (100% = plants have died)
Outline: as §3

SETVI [6] = assay: Pre-emergence action at 320 g/ha against SETVI; format: in vivo, Setaria viridis; details: visual scoring after about 3 weeks vs untreated controls
Outline: as §3

ECHCG [7] = assay: Post-emergence action against ECHCG, 1.28 kg/ha; format: in vivo, Echinochloa crus-galli; details: dosage 1280 g/ha, visual rating about 3 weeks after treatment vs untreated controls
Outline: as §1

ALOMY [8] = assay: Pre-emergence action against ALOMY, 1280 g/ha; format: in vivo, Alopecurus myosuroides; details: visual scoring after about 3 weeks vs untreated controls, 100% = plants have died, 0% = like control plants
Outline: as §2

STEME [9] = assay: Post-emergence action against STEME, 1.28 kg/ha; format: in vivo, Stellaria media; details: dosage 1280 g/ha, visual rating about 3 weeks after treatment vs untreated controls (100% = plants died)
Outline: as §1

DIGSA [10] = assay: Post-emergence action against DIGSA, 1.28 kg/ha; format: in vivo, Digitaria sanguinalis; details: dosage 1280 g/ha, visual rating about 3 weeks after treatment vs untreated controls
Outline: as §1

ABUTH [11] = assay: Pre-emergence action at 320 g/ha against ABUTH; format: in vivo, Abutilon theophrasti; details: greenhouse, scored visually after about 3 weeks vs untreated controls, 100% = plants have died, 0% = like control plants
Source text: b) Seeds of monocotyledonous and dicotyledonous weed plants and crop plants are placed in plastic or organic planting pots and covered with soil. The compounds of the invention, formulated in the form of wettable powders (WP) or as emulsion concentrates (EC), are then applied onto the surface of the covering soil as aqueous suspension or emulsion with addition of 0.5% additive at a water application rate of 600 l/ha (converted). After the treatment, the pots are placed in a greenhouse and kept under good growth conditions for the trial plants. After about 3 weeks, the effect of the preparations is scored visually in comparison with untreated controls as percentages. For example, 100% activity=the plants have died, 0% activity=like control plants. Tables 13 to 26 below show the effects of selected compounds of the general formula (I) on various harmful plants and at an application rate corresponding to 320 g/ha, which were obtained by the experimental procedure mentioned above.

AMARE [12] = assay: Post-emergence action against AMARE, 1.28 kg/ha; format: in vivo, Amaranthus retroflexus; details: dosage 1280 g/ha, visual rating about 3 weeks after treatment vs untreated controls (100% = plants died)
Outline: as §1

LOLRI [13] = assay: Pre-emergence action at 320 g/ha against LOLRI; format: in vivo, Lolium rigidum; details: visual scoring after about 3 weeks vs untreated controls
Outline: as §3

ABUTH [14] = assay: Post-emergence action against ABUTH, 1.28 kg/ha; format: in vivo, Abutilon theophrasti; details: dosage 1280 g/ha, visual rating about 3 weeks after treatment vs untreated controls (100% = plants died)
Outline: as §1

POLCO = assay: Pre-emergence action at 320 g/ha against POLCO; format: in vivo, Fallopia convolvulus (Polygonum convolvulus); details: visual scoring after about 3 weeks vs untreated controls
Outline: as §3

SETVI [15] = assay: Pre-emergence action against SETVI, 1280 g/ha; format: in vivo, Setaria viridis; details: visual scoring after about 3 weeks vs untreated controls, 100% = plants have died, 0% = like control plants
Outline: as §2

ECHCG [16] = assay: Pre-emergence action against ECHCG, 1280 g/ha; format: in vivo, Echinochloa crus-galli; details: visual scoring after about 3 weeks vs untreated controls, 100% = plants have died, 0% = like control plants
Outline: as §2

AVEFA = assay: Pre-emergence action at 320 g/ha against AVEFA; format: in vivo; details: visual scoring after about 3 weeks vs untreated controls
Outline: as §3

STEME [17] = assay: Pre-emergence action against STEME, 1280 g/ha; format: in vivo, Stellaria media; details: scored visually after about 3 weeks vs untreated controls (100% = plants have died)
Outline: as §2

MATIN [18] = assay: Post-emergence action against MATIN, 1.28 kg/ha; format: in vivo, Tripleurospermum inodorum (Matricaria inodora); details: dosage 1280 g/ha, visual rating about 3 weeks after treatment vs untreated controls (100% = plants died)
Outline: as §1

MATIN [19] = assay: Pre-emergence action at 320 g/ha against MATIN; format: in vivo, Tripleurospermum inodorum (Matricaria inodora); details: visual scoring after about 3 weeks vs untreated controls
Outline: as §3

ALOMY [20] = assay: Post-emergence action against ALOMY, 1.28 kg/ha; format: in vivo, Alopecurus myosuroides; details: dosage 1280 g/ha, visual rating about 3 weeks after treatment vs untreated controls
Outline: as §1

VIOTR = assay: Pre-emergence action at 320 g/ha against VIOTR; format: in vivo, Viola tricolor; details: dosage 320 g/ha
Outline: as §3

VERPE [21] = assay: Pre-emergence action against VERPE, 1280 g/ha; format: in vivo, Veronica persica; details: scored visually after about 3 weeks vs untreated controls (100% = plants have died)
Outline: as §2

POAAN [22] = assay: Post-emergence action against POAAN, 1.28 kg/ha; format: in vivo, Poa annua; details: dosage 1280 g/ha, visual rating about 3 weeks after treatment vs untreated controls
Outline: as §1

LOLRI [23] = assay: Pre-emergence action against LOLRI, 1280 g/ha; format: in vivo, Lolium rigidum; details: visual scoring after about 3 weeks vs untreated controls, 100% = plants have died, 0% = like control plants
Outline: as §2

DIGSA [24] = assay: Pre-emergence action at 320 g/ha against DIGSA; format: in vivo, Digitaria sanguinalis; details: visual scoring after about 3 weeks vs untreated controls
Outline: as §3

POAAN [25] = assay: Pre-emergence action against POAAN, 1280 g/ha; format: in vivo, Poa annua; details: visual scoring after about 3 weeks vs untreated controls, 100% = plants have died, 0% = like control plants
Outline: as §2

PHBPU = assay: Pre-emergence action at 320 g/ha against PHBPU; format: in vivo; details: visual scoring after about 3 weeks vs untreated controls
Outline: as §3

DIGSA [26] = assay: Pre-emergence action against DIGSA, 1280 g/ha; format: in vivo, Digitaria sanguinalis; details: visual scoring after about 3 weeks vs untreated controls, 100% = plants have died, 0% = like control plants
Outline: as §2

AMARE [27] = assay: Pre-emergence action against AMARE, 1280 g/ha; format: in vivo, Amaranthus retroflexus; details: scored visually after about 3 weeks vs untreated controls (100% = plants have died)
Outline: as §2

KCHSC [28] = assay: Pre-emergence action against KCHSC, 1280 g/ha; format: in vivo, Bassia scoparia; details: scored visually after about 3 weeks vs untreated controls (100% = plants have died)
Outline: as §2

VERPE [29] = assay: Post-emergence action against VERPE, 1.28 kg/ha; format: in vivo, Veronica persica; details: dosage 1280 g/ha, visual rating about 3 weeks after treatment vs untreated controls (100% = plants died)
Outline: as §1

AMARE [30] = assay: Pre-emergence action at 320 g/ha against AMARE; format: in vivo, Amaranthus retroflexus; details: visual scoring after about 3 weeks vs untreated controls
Outline: as §3

ABUTH [31] = assay: Pre-emergence action against ABUTH, 1280 g/ha; format: in vivo, Abutilon theophrasti; details: scored visually after about 3 weeks vs untreated controls (100% = plants have died)
Outline: as §2

SMILES: C[C@@H](Oc1nn(-c2ccccc2F)c(-c2cncnc2)c1Cl)C(=O)O [VI-018]
- Post-emergence action against LOLRI (LOLRI [1]): 90%
- Post-emergence action against KCHSC (KCHSC [2]): 90%
- Pre-emergence action against MATIN (MATIN [3]): 100%
- Pre-emergence action against VERPE in % (VERPE [4]): 80%
- Pre-emergence action at 320 g/ha against ALOMY in % (ALOMY [5]): 100%
- Pre-emergence action against SETVI in % (SETVI [6]): 100%
- Post-emergence action against ECHCG (ECHCG [7]): 100%
- Pre-emergence action against ALOMY (ALOMY [8]): 100%
- Post-emergence action against STEME (STEME [9]): 90%
- Post-emergence action against DIGSA (DIGSA [10]): 100%
- Pre-emergence action at 320 g/ha against ABUTH in % (ABUTH [11]): 80%
- Post-emergence action against AMARE (AMARE [12]): 90%
- Pre-emergence action against LOLRI in % (LOLRI [13]): 100%
- Post-emergence action against ABUTH (ABUTH [14]): 90%
- Pre-emergence action against POLCO in % (POLCO): 90%
- Pre-emergence action against SETVI (SETVI [15]): 100%
- Pre-emergence action against ECHCG (ECHCG [16]): 100%
- Pre-emergence action against AVEFA in % (AVEFA): 80%
- Pre-emergence action against STEME (STEME [17]): 100%
- Post-emergence action against MATIN (MATIN [18]): 100%
- Pre-emergence action against MATIN in % (MATIN [19]): 90%
- Post-emergence action against ALOMY (ALOMY [20]): 100%
- Pre-emergence action against VIOTR in % (VIOTR): 90%
- Pre-emergence action against VERPE (VERPE [21]): 100%
- Post-emergence action against POAAN (POAAN [22]): 100%
- Pre-emergence action against LOLRI (LOLRI [23]): 100%
- Pre-emergence action against DIGSA in % (DIGSA [24]): 100%
- Pre-emergence action against POAAN (POAAN [25]): 100%
- Pre-emergence action against PHBPU in % (PHBPU): 90%
- Pre-emergence action against DIGSA (DIGSA [26]): 100%
- Pre-emergence action against AMARE (AMARE [27]): 100%
- Pre-emergence action against KCHSC (KCHSC [28]): 100%
- Post-emergence action against VERPE (VERPE [29]): 100%
- Pre-emergence action against AMARE in % (AMARE [30]): 100%
- Pre-emergence action against ABUTH (ABUTH [31]): 90%
